The data set is described as follows: Comparative stability, Formulation 4 (based on Treanda, mannitol). In kind it is physicochemical. As to the method: The stability of Compound (1c) either as the HCl salt or as the free base was compared to the stability of melphalan HCl and/or bendamustine HCl in various pharmaceutical formulations and at different concentrations and at temperatures of 0° C. or 25° C.
The stability of the compounds in the pharmaceutical formulations was determined at concentrations within the range from 0.4 mg/mL to 0.5 mg/mL, from 0.9 mg/mL to 1.1 mg/mL, and from 1.8 mg/mL to 2.1 mg/mL.
The amount of the active pharmaceutical ingredient (API) (Compound (1c), melphalan or bendamustine) in the pharmaceutical formulations at different times during storage was determined using HPLC/UV as described in detail for Example 4 and Example 5.
Treanda® is an injectable formulation of bendamustine hydrochloride, 1H-benzimidazole-2-butanoic acid, 5-[bis(2-chloroethyl)amino]-1-methyl-, 4-(5-(bis(2-chloroethyl)amino)-1-methyl-1H-benzo[d]imidazol-2-yl) butanoic acid monohydrochloride approved by the FDA. Treanda® for injection is provided in a vial containing either 25 or 100 mg of bendamustine HCl as a white to off-white lyophilized powder. Each vial contains either 25 mg or 100 mg of bendamustine hydrochloride and 42.5 mg or 170 mg of mannitol, USP, which is reconstituted in either 0.9% sodium chloride injection, USP, or 2.5% dextrose/0.45% sodium chloride solution injection, USP to a final concentration of 0.2 mg/mL-0.6 mg/mL and adjusted to a pH from 2.5 to 3.5.
A series of 12 mL glass vials each containing 12.5 mg (0.0317 mmol) of bendamustine mono-hydrochloride salt (C16H21C12N3O2·HCl, 394.72 g/mol; MedKoo, 200470) (corresponding to 11.3 mg of bendamustine as the free base) were prepared through weighing out the commercial compound into the vials. To each of the vials either containing bendamustine mono-hydrochloride salt was added 21.3 mg (0.117 mmol) of D-mannitol (C6H14O6, MW 182.17 g/mol; SigmaAldrich, M1902). The mixtures were dissolved in 2.0 mL of double distilled water (dd-H2O) (Arrowhead), the clear colorless solutions were frozen at −78° C. (dry ice/acetone bath), and the solvents were lyophilized off at about 100 mTorr within about 16 h to afford colorless solids.
A stock solution was prepared by dissolving 85.0 mg (0.255 mmol) of Compound (1c) (free base) and 170.4 mg of D-mannitol (0.935 mmol) (C6H14O6, MW 182.17 g/mol; SigmaAldrich, M1902), and 0.503 mL of 0.5072 M aq. HCl (0.255 mmol, 1.0 eq.) (Fluka, 318957) in about 16.0 mL of a mixture of acetonitrile/water (1:1, v/v) with vortexing in clean graduated glass cylinder (25 mL) to afford a stock solution of Compound (1c) as a mono-HCl salt of a concentration of 5.313 mg/mL and a D-mannitol concentration of 10.65 mg/mL. This solution was filtered through a 0.22 μm PTFE syringe filter into a clean 25 mL Erlenmeyer flask. Aliquots of 2.0 mL (2× 1.0 mL; 2× 5.313 mg) of this stock solution were rapidly pipetted into clean 12 mL scintillation vials. The aliquots were frozen at −78° C. (dry ice/acetone bath) and lyophilized at about 100 mTorr for about 16 hours to provide test vials each containing 11.8 mg (0.0319 mmol) of Compound (1c) mono-hydrochloride salt (mono-HCl salt) (corresponding to 10.6 mg of Compound (1c) as a free base) and 21.3 mg (0.117 mmol) of D-mannitol as a colorless powdery solid.
The materials in the vials were dissolved 2.5 mL of double-distilled water (dd-H2O) (Arrowhead) to provide clear colorless, non-viscous stock solutions of a concentration of 4.24 mg/mL of Compound (1c) as the monohydrochloride salt or 4.54 mg/mL of bendamustine as the mono-hydrochloride salt, respectively.
1.0 mL of the stock solution containing 4.24 mg/mL of Compound (1c) as the monohydrochloride salt was diluted with 9.0 mL of 0.9% saline to afford 10.0 mL of a test solution of a concentration of 0.424 mg/mL of Compound (1c) as the monohydrochloride salt and with a pH of about 4. […]

This note sets out measurements from patent publication US20250282895A1, “PHARMACEUTICAL COMPOSITIONS OF CHEMOTHERAPEUTIC AGENTS BASED ON BETA-S[…]-AMINO ACID DERIVATIVES” (priority 2021, published 2025).

Structures are written as SMILES. Structures can show the parent of a compound that is named as a salt.

For the molecule `Cc1ccc(N(CCCl)CCCl)cc1C[C@H](N)CC(=O)O` [Compound (1c)•HCl, (S)-3-amino-4-(5-(bis(2-chloroethyl)amino)-2-methylphenyl) butanoic acid mono hydrochloride salt], the “% API” value by setting is: (Formulation 4, 0° C., 0.5 hours, 0.4-0.5 mg/mL, pH 4-5 (bendamustine), pH 4 (Compound (1c)•HCl)) 92%; (Formulation 4, 0° C., 0.5 hours, 0.9-1.1 mg/mL, pH 4) 92%; (Formulation 4, 0° C., 0.5 hours, 1.8-2.1 mg/mL, pH 4) 93%; (Formulation 4, 0° C., 2.0 hours, 0.4-0.5 mg/mL, pH 4-5 (bendamustine), pH 4 (Compound (1c)•HCl)) 78%; (Formulation 4, 0° C., 2.0 hours, 0.9-1.1 mg/mL, pH 4) 73%; (Formulation 4, 0° C., 2.0 hours, 1.8-2.1 mg/mL, pH 4) 80%. Also, the “% API” value is 95% (Formulation 4, 25° C., 0.5 hours, 0.4-0.5 mg/mL, pH 4-5 (bendamustine), pH 4 (Compound (1c)•HCl)); 95% (Formulation 4, 25° C., 0.5 hours, 0.9-1.1 mg/mL, pH 4-5 (bendamustine), pH 4 (Compound (1c)•HCl)); 92% (Formulation 4, 25° C., 0.5 hours, 1.8-2.1 mg/mL, pH 4-5 (bendamustine), pH 4 (Compound (1c)•HCl)); 81% (Formulation 4, 25° C., 2.0 hours, 0.4-0.5 mg/mL, pH 4-5 (bendamustine), pH 4 (Compound (1c)•HCl)); 81% (Formulation 4, 25° C., 2.0 hours, 0.9-1.1 mg/mL, pH 4-5 (bendamustine), pH 4 (Compound (1c)•HCl)); 75% (Formulation 4, 25° C., 2.0 hours, 1.8-2.1 mg/mL, pH 4-5 (bendamustine), pH 4 (Compound (1c)•HCl)).
